Test results: patent publication US20250129055A1, “GLUCOSIDE DERIVATIVE, AND PREPARATION METHOD THEREFOR AND APPLICATION THEREOF” (BEIJING INCREASE INNOVATIVE DRUG CO., LTD., priority 2020, published 2025)
Where two headings read alike, the source gives them in different places. Marks after values point to notes of the source that are not given here.

Assays:
[1] = tested on: mice; details: for Death rate (%): 7 days
Method: Test Example 5 Research on Safety of the Compounds of the Present Invention
The compounds of the present invention were subjected to the following acute toxicity studies in mice.
The symptoms of toxicity reaction and death time were recorded.
On the day before administration, the animals were fasted but provided with water for 17 h. Each test drug group was administered with the corresponding test drug once by gavage, and the blank control group was administered with the same dose of vehicle once by gavage.

[2] = tested on: spontaneous type 2 diabetes mellitus db/db mice; experiment: Pharmacodynamic effect on spontaneous type 2 diabetes mellitus db/db mice; type: in vivo; details: for AUC of blood glucose: 0-24 h; for Concentration of blood glucose 0 h / Concentration of blood glucose 1 h / Concentration of blood glucose 2 h / Concentration of blood glucose 4 h / Concentration of blood glucose 6 h / Concentration of blood glucose 8 h / Concentration of blood glucose 24 h: fasting; for Concentration of blood glucose 0 h: 0 h before administration; for HbA1c: 28th day; for Random blood glucose, the 22nd day (title: 28th day): column head 22nd day
Method: Test example 4 Pharmacodynamic effect of the compounds of the present invention on spontaneous type 2 diabetes mellitus db/db mice
Spontaneous type 2 diabetes mellitus db/db mice and the normal control db/m mice (male, 5-6 weeks old) were used. The db/db mice were randomly divide into […] based on random blood glucose, fasting blood glucose, percentage of blood glucose reduction at 40 min, blood triglycerides, total blood cholesterol, and body weight, which were model group (con), positive control group and three groups of test compound with different doses (n=10).
Mice were administered with drugs by gavage.
The mice were fasted for 2 h, and then the 0 h (fasting) blood samples were collected. Then the mice in each group were administered with drugs by gavage, and blood samples were collected at 1 h, 2 h, 4 h, 6 h, 8 h and 24 h after administration. The blood glucose level was measured using glucose oxidase-peroxidase method, and the area under the blood glucose curve was calculated. Moreover, urine samples were collected 2 h and 4 h after administration to determine the concentration of urine glucose.
On the 15th day of continuous administration, before the mice were fasted, blood samples were collected to measure the random blood glucose. Then the mice were fasted and administered with the compounds, and after 2 h, blood samples were collected to measure the fasting blood glucose. […]
The data were expressed as mean±SEM (n=10). The comparison between multiple groups was performed by one-way analysis of variance, and the comparison between two groups was performed by Dunnett's t test. Statistical graphing was performed using Graphpad Prism software.

[3] = 0.5 mg/kg single administration
[4] = 1.0 mg/kg single administration
[5] = 2.0 mg/kg single administration
[6] = 22nd day of continuous administration, 0.5, 1.0 and 2.0 mg/kg

SMILES: CS[C@H]1O[C@@H](c2ccc(C)c(Cc3ccc4c(c3)OCCO4)c2)[C@H](O)[C@@H](O)[C@@H]1O (stereo in doubt) [Compound 2, 2-[3-(2,3-dihydro-1,4-benzodioxin-6-ylmethyl)-4-methylphenyl]-6-(methylthio)oxane-3,4,5-triol]
- Deaths D 1 ([1]; female, mouse, in vivo, 3000 mg/kg, 1 day): 0
- Deaths D 2 ([1]; female, mouse, in vivo, 3000 mg/kg, 2 day): 0
- Deaths D 3 ([1]; female, mouse, in vivo, 3000 mg/kg, 3 day): 0
- Deaths D 4 ([1]; female, mouse, in vivo, 3000 mg/kg, 4 day): 0
- Deaths D 5 ([1]; female, mouse, in vivo, 3000 mg/kg, 5 day): 0
- Deaths D 6 ([1]; female, mouse, in vivo, 3000 mg/kg, 6 day): 0
- Deaths D 7 ([1]; female, mouse, in vivo, 3000 mg/kg, 7 day): 0
- Death rate (%) ([1]; female, mouse, in vivo, 3000 mg/kg): 0%
- Deaths D 1 ([1]; male, mouse, in vivo, 3000 mg/kg, 1 day): 0
- Deaths D 2 ([1]; male, mouse, in vivo, 3000 mg/kg, 2 day): 0
- Deaths D 3 ([1]; male, mouse, in vivo, 3000 mg/kg, 3 day): 0
- Deaths D 4 ([1]; male, mouse, in vivo, 3000 mg/kg, 4 day): 1
- Deaths D 5 ([1]; male, mouse, in vivo, 3000 mg/kg, 5 day): 0
- Deaths D 6 ([1]; male, mouse, in vivo, 3000 mg/kg, 6 day): 1
- Deaths D 7 ([1]; male, mouse, in vivo, 3000 mg/kg, 7 day): 0
- Death rate (%) ([1]; male, mouse, in vivo, 3000 mg/kg): 40%
- AUC of blood glucose [2, 3]: 7046 ± 253.0 mg·h/dL
- Concentration of blood glucose 0 h [2, 3]: 486.3 ± 32.9 mg/dL
- Concentration of blood glucose 1 h [2, 3]: 386.8 ± 22.3 mg/dL
- Concentration of blood glucose 2 h [2, 3]: 362.7 ± 27.2 mg/dL
- Concentration of blood glucose 4 h [2, 3]: 252.3 ± 9.7 mg/dL
- Concentration of blood glucose 6 h [2, 3]: 169.3 ± 4.4 mg/dL
- Concentration of blood glucose 8 h [2, 3]: 134.2 ± 4.6 mg/dL
- Concentration of blood glucose 24 h [2, 3]: 477.7 ± 25.9 mg/dL
- Fasting blood glucose, the 15th day ([2]; 0.5 mg/kg): 185.0 ± 13.6 mg/dL
- Random blood glucose, the 15th day ([2]; 0.5 mg/kg): 307.9 ± 18.4 mg/dL
- Fasting blood glucose, the 22nd day ([2]; 0.5 mg/kg): 193.8 ± 14.7 mg/dL
- HbA1c ([2]; 0.5 mg/kg): 4.7 ± 0.3 %
- Random blood glucose, the 22nd day (title: 28th day) ([2]; 0.5 mg/kg): 272.4 ± 16.5 mg/dL
- AUC of blood glucose [2, 4]: 6952 ± 295.8 mg·h/dL
- Concentration of blood glucose 0 h [2, 4]: 552.2 ± 24.2 mg/dL
- Concentration of blood glucose 1 h [2, 4]: 412.5 ± 13.1 mg/dL
- Concentration of blood glucose 2 h [2, 4]: 362.3 ± 23.7 mg/dL
- Concentration of blood glucose 4 h [2, 4]: 256.0 ± 10.1 mg/dL
- Concentration of blood glucose 6 h [2, 4]: 161.8 ± 6.9 mg/dL
- Concentration of blood glucose 8 h [2, 4]: 124.3 ± 5.8 mg/dL
- Concentration of blood glucose 24 h [2, 4]: 470.7 ± 25.6 mg/dL
- Fasting blood glucose, the 15th day ([2]; 1.0 mg/kg): 197.9 ± 11.2 mg/dL
- Random blood glucose, the 15th day ([2]; 1.0 mg/kg): 322.7 ± 11.1 mg/dL
- Fasting blood glucose, the 22nd day ([2]; 1.0 mg/kg): 204.1 ± 12.2 mg/dL
- HbA1c ([2]; 1.0 mg/kg): 4.8 ± 0.2 %
- Random blood glucose, the 22nd day (title: 28th day) ([2]; 1.0 mg/kg): 258.4 ± 12.8 mg/dL
- AUC of blood glucose [2, 5]: 6507 ± 269.6 mg·h/dL
- Concentration of blood glucose 0 h [2, 5]: 519.3 ± 30.7 mg/dL
- Concentration of blood glucose 1 h [2, 5]: 377.0 ± 9.0 mg/dL
- Concentration of blood glucose 2 h [2, 5]: 309.7 ± 13.1 mg/dL
- Concentration of blood glucose 4 h [2, 5]: 259.0 ± 14.9 mg/dL
- Concentration of blood glucose 6 h [2, 5]: 153.3 ± 10.7 mg/dL
- Concentration of blood glucose 8 h [2, 5]: 129.5 ± 12.8 mg/dL
- Concentration of blood glucose 24 h [2, 5]: 427.0 ± 20.2 mg/dL
- Fasting blood glucose, the 15th day ([2]; 2.0 mg/kg): 162.7 ± 12.1 mg/dL
- Random blood glucose, the 15th day ([2]; 2.0 mg/kg): 240.4 ± 16.4 mg/dL
- Fasting blood glucose, the 22nd day ([2]; 2.0 mg/kg): 159.5 ± 8.5 mg/dL
- HbA1c ([2]; 2.0 mg/kg): 4.0 ± 0.2 %
- Random blood glucose, the 22nd day (title: 28th day) ([2]; 2.0 mg/kg): 194.7 ± 14.0 mg/dL
- Blood triglycerides (TG) level [2, 6]: significantly lower
- Concentration of blood cholesterol [2, 6]: no effect
- Concentration of urine glucose ([2]; 2 h after single administration, 0.5, 1.0 and 2.0 mg/kg): increased
- Concentration of urine glucose ([2]; 4 h after single administration, 0.5, 1.0 and 2.0 mg/kg): not increased
- Effect on body weight, food intake and water intake ([2]; continuous administration, 0.5, 1.0 and 2.0 mg/kg): no significant effect
- Duration of blood glucose lowering ([2]; single administration, 0.5, 1.0 and 2.0 mg/kg): up to 24 h

SMILES: CCOc1ccc(Cc2cc([C@@H]3O[C@H](CO)[C@@H](O)[C@H](O)[C@H]3O)ccc2Cl)cc1 [Dapagliflozin, reference compound]
- Death rate (%) ([1]; female, 3000 mg/kg once by gavage): 0%
- Deaths D 1 ([1]; female, 3000 mg/kg once by gavage, day 1): 0
- Deaths D 2 ([1]; female, 3000 mg/kg once by gavage, day 2): 0
- Deaths D 3 ([1]; female, 3000 mg/kg once by gavage, day 3): 0
- Deaths D 4 ([1]; female, 3000 mg/kg once by gavage, day 4): 0
- Deaths D 5 ([1]; female, 3000 mg/kg once by gavage, day 5): 0
- Deaths D 6 ([1]; female, 3000 mg/kg once by gavage, day 6): 0
- Deaths D 7 ([1]; female, 3000 mg/kg once by gavage, day 7): 0
- Death rate (%) ([1]; male, 3000 mg/kg once by gavage): 80%
- Deaths D 1 ([1]; male, 3000 mg/kg once by gavage, day 1): 0
- Deaths D 2 ([1]; male, 3000 mg/kg once by gavage, day 2): 0
- Deaths D 3 ([1]; male, 3000 mg/kg once by gavage, day 3): 1
- Deaths D 4 ([1]; male, 3000 mg/kg once by gavage, day 4): 1
- Deaths D 5 ([1]; male, 3000 mg/kg once by gavage, day 5): 0
- Deaths D 6 ([1]; male, 3000 mg/kg once by gavage, day 6): 2
- Deaths D 7 ([1]; male, 3000 mg/kg once by gavage, day 7): 0
- AUC of blood glucose [2, 5]: 8866 ± 361.1***^ mg/dl · h
- Concentration of blood glucose 0 h [2, 5]: 488.5 ± 29.2 mg/dL
- Concentration of blood glucose 1 h [2, 5]: 386.4 ± 16.5 mg/dL
- Concentration of blood glucose 2 h [2, 5]: 333.8 ± 13.9 mg/dL
- Concentration of blood glucose 4 h [2, 5]: 265.8 ± 9.1 mg/dL
- Concentration of blood glucose 6 h [2, 5]: 209.3 ± 8.0 ^ mg/dl
- Concentration of blood glucose 8 h [2, 5]: 176.7 ± 10.2 mg/dL
- Concentration of blood glucose 24 h [2, 5]: 649.4 ± 40.0 mg/dL
- Fasting blood glucose, the 15th day ([2]; 2.0 mg/kg): 183.0 ± 11.2 mg/dL
- Random blood glucose, the 15th day ([2]; 2.0 mg/kg): 344.7 ± 24.1 mg/dL
- Fasting blood glucose, the 22nd day ([2]; 2.0 mg/kg): 191.8 ± 11.0 mg/dL
- HbA1c ([2]; 2.0 mg/kg): 5.1 ± 0.3 %
- Random blood glucose, the 22nd day (title: 28th day) ([2]; 2.0 mg/kg): 317.0 ± 16.4 mg/dL
